This is an account of results in patent US20170081286A1, “2-[[[2-[(HYDROXYACETYL)AMINO]-4-PYRIDINYL]METHYL]THIO]-N-[4-(TRIFLUOROMETHOXY)PHENYL]-3-PYRIDINECARBOXAMIDE BENZENESULFONATE, CRYSTAL OF SAME, CRYSTAL POLYMORPH THEREOF, AND METHODS FOR PRODUCTION THEREOF” (Santen Pharmaceutical Co., Ltd., priority 2009, published 2017).

The subject of data set [1] is tumor-bearing mouse model. The note with it: described in PTL 1; cited from earlier work.
Data set [2] has as its system Crl:CD (SD) rat. Description: Rat 1-week repeated oral administration toxicity test of compound A (free body), stomach histopathology. Type of data set: in vivo. The note with it: once a day, 1 week (7 days), 30 mg/kg. The procedure: 1) Rat 1-week repeated oral administration toxicity test of compound A (free body)
(§1) i) To Crl:CD (SD) rat was orally administered compound A ([…]) suspended in a 1% methylcellulose liquid once a day for 7 days. ii) After completion of the administration, the rat was exsanguinated to death under ether anesthesia, then the stomach was removed, fixed in a 10% neutral buffered formalin aqueous solution, and then stained with hematoxylin-eosin to prepare a specimen, and the change in the stomach was observed histopathologically. 2) Rat 4-week repeated oral administration toxicity test of benzenesulfonate of compound A

Data set [3] concerns rat choroidal neovascularization model. To be noted: described in PTL 1; cited from earlier work.
The subject of data set [4] is VEGF-induced HUVEC proliferation. The note with it: described in PTL 1; cited from earlier work.
Data set [5] concerns rat adjuvant arthritis model. To be noted: described in PTL 1; cited from earlier work.
A short description of data set [6]: Storage stability test of salts of compound A (1-week preliminary stability test, content by HPLC). To be noted: for decomposition / decrease in purity on storage (in words): 1-week preliminary stability test (severe test), light, humidity and other factors; for content of salt of compound A after storage, relative to the content before storage of 100%: HPLC. It is filed as physicochemical. The procedure: For examining the storage stability for these salts with compound A, a 1-week preliminary stability test (severe test) was executed.
<Storage Stability Tests for Benzenesulfonate, Methanesulfonate and p-Toluenesulfonate of Compound A (1-Week Preliminary Stability Test)>
For benzenesulfonate, methanesulfonate and p-toluenesulfonate of compound A, after storing under the conditions of 40° C. 75% RH, 60° C. or light (1000 lux/hr), the content of each salt of compound A was measured by HPLC. The percentage of change, relative to the content before storage of 100%, was calculated.

The test system of data set [7] is Crl:CD (SD) rat. Description: Rat 4-week repeated oral administration toxicity test of benzenesulfonate of compound A, stomach histopathology. Type of data set: in vivo. To be noted: once a day, 4 weeks, 30 mg/kg. The procedure:
as §1
i) To Crl:CD (SD) rat was orally administered benzenesulfonate of compound A ([…]) suspended in a 1% methylcellulose liquid once a day for 4 weeks. ii) After completion of the administration, the rat was exsanguinated to death under ether anesthesia, then the stomach was removed, fixed in a 10% neutral buffered formalin aqueous solution, and then stained with hematoxylin-eosin to prepare a specimen, and the change in the stomach was observed histopathologically.

`O=C(CO)Nc1cc(CSc2ncccc2C(=O)Nc2ccc(OC(F)(F)F)cc2)ccn1` [compound A, 2-[[[2-[(hydroxyacetyl)amino]-4-pyridinyl]methyl]thio]-N-[4-(trifluoromethoxy)phenyl]-3-pyridinecarboxamide]: the “tumor proliferation suppressing effect” value in data set [1] is “exhibits a tumor proliferation suppressing effect”. In addition, the “mineral deposition in the stomach” value in the data set with Crl:CD (SD) rat [2] is on record as “observed”. For the same compound, in data set [3], the “choroidal neovascularization inhibiting effect” value was “exhibits a choroidal neovascularization inhibiting effect”. The “cell proliferation inhibiting effect” value in data set [4] is “exhibits a cell proliferation inhibiting effect”. The “paw edema suppressing effect” value in data set [5] is listed as “exhibits a paw edema suppressing effect”.
For the compound p-toluenesulfonate, the “decomposition / decrease in purity on storage (in words)” value (“decomposition / decrease in purity” for short) in data set [6] was “decomposed by humidity”. Besides, the “content of salt of compound A after storage, relative to the content before storage of 100%” value in data set [6] (40° C. 75% RH/1 week) is 92.3%; in data set [6] (60° C./1 week), 99.3%; in data set [6] (1000 lux/hr, 1 week), 99.8%.
Regarding `O=C(CO)Nc1cc(CSc2ncccc2C(=O)Nc2ccc(OC(F)(F)F)cc2)ccn1.O=S(=O)(O)c1ccccc1` [benzenesulfonate of compound A, benzenesulfonate of 2-[[[2-[(hydroxyacetyl)amino]-4-pyridinyl]methyl]thio]-N-[4-(trifluoromethoxy)phenyl]-3-pyridinecarboxamide], the “decomposition / decrease in purity” value in data set [6] is “did not show a decrease in purity”. For the same compound, the “content of salt of compound A after storage, relative to the content before storage of 100%” value is 100.0% in data set [6] (40° C. 75% RH/1 week); 100.0% in data set [6] (60° C./1 week); 100.0% in data set [6] (1000 lux/hr, 1 week). Besides, in the data set on Crl:CD (SD) rat [7], the “mineral deposition in the stomach” value was “not observed”.
In the case of `CS(=O)(=O)O.O=C(CO)Nc1cc(CSc2ncccc2C(=O)Nc2ccc(OC(F)(F)F)cc2)ccn1` [methanesulfonate of compound A], in data set [6], the “decomposition / decrease in purity” value was “decomposed by light”. Further, the “content of salt of compound A after storage, relative to the content before storage of 100%” value in data set [6] (40° C. 75% RH/1 week) is recorded as 99.8%; in data set [6] (60° C./1 week), 99.9%; in data set [6] (1000 lux/hr, 1 week) it was 99.1%.
